# Reference: ChEMBL document CHEMBL5154650, “Identification and optimization of biphenyl derivatives as novel tubulin inhibitors targeting colchicine-binding site overcoming multidrug resistance” (Eur J Med Chem, 2022)
# Activity calls are given as the source filed them. The rule behind the calls is not given here.
# Columns and labels:
# A549 [1] = test: Antiproliferative activity against human A549 cells measured after 72 hrs by SRB assay; assay type: functional, cell-based
# Tubulin (Homo sapiens) [2] = biological target: T1, Tubulin (Homo sapiens) (UniProt P68371+Q9H4B7+P0DPH7+P68366+Q13509+Q71U36+P04350+Q3ZCM7+P07437+P68363+Q9BQE3+Q6PEY2+Q13885+Q9BVA1+Q9BUF5); test: Inhibition of tubulin (unknown origin) polymerization incubated for 15 mins at 30 uM relative to control; assay type: protein-complex assay
# Tubulin (Homo sapiens) [3] = biological target: T1, Tubulin (Homo sapiens); test: Inhibition of tubulin polymerization in human A549 cells assessed as disruption of microtubule network at 50 nM measured by DAPI staining method; assay type: cell-based
# KB/VCR = test: Antiproliferative activity against human KB/VCR cells at 0.3 to 30 nM measured in presence of 10 uM verapamil after 72 hrs by SRB assay; assay type: functional, cell-based; conditions: dose 0.3-30 nM
# [4] = Resistant index, ratio IC50 for KB-V1 cells over IC50 for KB cells; assay type: functional
# KB = test: Antiproliferative activity against human KB cells measured after 72 hrs by SRB assay; assay type: functional, cell-based
# Tubulin (Homo sapiens) [5] = biological target: T1, Tubulin (Homo sapiens); test: Inhibition of tubulin polymerization in human A549 cells assessed as disruption of microtubule network at 200 nM measured by DAPI staining method; assay type: cell-based
# K562/Adr = test: Antiproliferative activity against human K562/Adr cells measured after 72 hrs by SRB assay; assay type: functional, cell-based
# 4T1 [6] = test: Antitumor activity against mouse 4T1 cells xenografted in female BALB/c mouse assessed as T/C at 25 mg/kg, ip administered every other day for 14 days; assay type: functional; conditions: time 14 day
# K562 = test: Antiproliferative activity against human K562 cells measured after 72 hrs by SRB assay; assay type: functional, cell-based; conditions: K562, 72 h
# [7] = Resistant index, ratio IC50 for K562/Adr cells over IC50 for K562 cells; assay type: functional
# [8] = Antiproliferative activity against human KB/VCR cells measured after 72 hrs by SRB assay; assay type: functional, cell-based
# KB-V1 = test: Antiproliferative activity against human KB-V1 cells measured after 72 hrs by SRB assay; assay type: functional, cell-based; conditions: KB-V1, 72 h
# A549 [9] = test: Induction of cell cycle arrest in human A549 cells assessed as accumulation at G2/M phase at 200 nM measured propidium iodide based flow cytometry analysis; assay type: functional
# [10] = Resistant index, ratio IC50 for KB/VCR cells over IC50 for KB cells; assay type: functional
# [11] = Metabolic stability in human liver microsomes assessed as intrinsic clearance at 1 uM in presence of NADPH measured by LC-MS/MS analysis; assay type: ADME, Microsome
# A549 [12] = test: Induction of cell cycle arrest in human A549 cells assessed as accumulation at G2/M phase at 400 nM measured after 24 hrs by propidium iodide based flow cytometry analysis; assay type: functional
# Tubulin (Homo sapiens) [13] = biological target: T1, Tubulin (Homo sapiens); test: Inhibition of tubulin polymerization in human A549 cells assessed as disruption of microtubule network at 200 nM measured after 24 hrs by DAPI staining method; assay type: cell-based
# Tubulin (Homo sapiens) [14] = biological target: T1, Tubulin (Homo sapiens); test: Inhibition of tubulin polymerization in human A549 cells at 3 to 100 uM; assay type: cell-based; conditions: dose 3-100 µM
# A549 [15] = test: Induction of cell morphological changes in human A549 cells at 400 nM measured after 24 hrs; assay type: functional, cell-based
# 4T1 [16] = test: Antitumor activity against mouse 4T1 cells xenografted in female BALB/c mouse assessed as T/C at 10 mg/kg, ip administered every other day for 14 days; assay type: functional; conditions: time 14 day
smiles,measurement,setting,value
N#Cc1cccc(-c2ccc(C(=O)c3ccccc3)cc2)c1,IC50,"A549 [1]; Homo sapiens, A549, 72 h",787 nM
N#Cc1ccc(-c2ccc(C(F)(F)F)cc2)cc1,IC50,"A549 [1]; Homo sapiens, A549, 72 h",5900 nM
COc1cc(C#N)cc(-c2ccc(C(=O)c3ccccc3)cc2F)c1,IC50,"A549 [1]; Homo sapiens, A549, 72 h",3890 nM
COc1cc(C#N)cc(-c2ccc(C(=O)c3ccco3)cc2)c1,IC50,"A549 [1]; Homo sapiens, A549, 72 h",> 10000 nM
O=C(c1ccccc1)c1ccc(-c2cc(C(F)(F)F)cc(C(F)(F)F)c2)cc1,IC50,"A549 [1]; Homo sapiens, A549, 72 h",> 10000 nM
COc1cc(C#N)cc(-c2ccc(C(=O)c3ccccc3)c(O)c2)c1,IC50,"A549 [1]; Homo sapiens, A549, 72 h",114 nM
CCOc1cccc(-c2ccc(C(=O)c3ccccc3)cc2)c1,IC50,"A549 [1]; Homo sapiens, A549, 72 h",1580 nM
COc1cc(C#N)cc(-c2ccc(C(=O)c3ccc(O)cc3)cc2)c1,IC50,"A549 [1]; Homo sapiens, A549, 72 h",> 10000 nM
COc1cc(C#N)cc(-c2ccc(C(=O)c3ccccc3O)cc2)c1,IC50,"A549 [1]; Homo sapiens, A549, 72 h",135 nM
COc1cc(C#N)cc(-c2ccc(C(=O)c3ccccn3)cc2)c1,IC50,"A549 [1]; Homo sapiens, A549, 72 h",1640 nM
COc1cc(C#N)cc(-c2ccc(C(=O)c3ccccc3)c(N)c2)c1 [listing 1 of 2 here],inhibition,Tubulin (Homo sapiens) [2],75%
same,inhibition,Tubulin (Homo sapiens) [3],Active
same,Activity,KB/VCR,Active
COc1cc(C#N)cc(-c2ccc(C(=O)c3ccccc3)cc2)c1,inhibition,Tubulin (Homo sapiens) [2],36.1%
same,IC50,"A549 [1]; Homo sapiens, A549, 72 h",62 nM
same,Ratio IC50,[4],1
same,IC50,KB,37.2 nM
same,inhibition,Tubulin (Homo sapiens) [5],Active
same,IC50,K562/Adr,226 nM
same,T/C,4T1 [6],47.2%
same,IC50,K562,144 nM
same,Ratio IC50,[7],1.6
same,IC50,[8],30.4 nM
same,IC50,KB-V1,36.1 nM
same,Activity,A549 [9],90%
same,Ratio IC50,[10],0.8
O=C(c1ccccc1)c1ccc(-c2cccc(Cl)c2)cc1,IC50,"A549 [1]; Homo sapiens, A549, 72 h",1870 nM
COc1cc(OC)c(-c2ccc(C(=O)c3ccccc3)cc2)cc1OC,IC50,"A549 [1]; Homo sapiens, A549, 72 h",> 10000 nM
COc1cc(-c2ccc(C(=O)c3ccccc3)cc2)cc(OC)c1OC,IC50,"A549 [1]; Homo sapiens, A549, 72 h",> 10000 nM
COc1cccc(-c2ccc(C(=O)c3ccccc3)cc2)c1,IC50,"A549 [1]; Homo sapiens, A549, 72 h",932 nM
CC[C@]1(O)C[C@H]2CN(CCc3c([nH]c4ccccc34)[C@@](C(=O)OC)(c3cc4c(cc3OC)N(C=O)[C@H]3[C@@](O)(C(=O)OC)[C@H](OC(C)=O)[C@]5(CC)C=CCN6CC[C@]43[C@@H]65)C2)C1 [VINCRISTINE],Ratio IC50,[4],1282.2
same,IC50,KB,6.7 nM
same,IC50,[8],2010 nM
same,IC50,KB-V1,8570 nM
same,Ratio IC50,[10],301
COc1cc(C#N)cc(-c2ccc(C(=O)c3cccc(Cl)c3)cc2)c1,IC50,"A549 [1]; Homo sapiens, A549, 72 h",121 nM
COc1cc(C#N)cc(-c2ccc(C(=O)c3ccccc3)c(N)c2)c1 [listing 2 of 2 here],IC50,A549 [1]; a549,6 nM
COc1cc(OC)cc(-c2ccc(C(=O)c3ccccc3)c(N)c2)c1,IC50,"A549 [1]; Homo sapiens, A549, 72 h",49 nM
O=C(c1ccccc1)c1ccc(-c2ccccc2)cc1,IC50,"A549 [1]; Homo sapiens, A549, 72 h",> 10000 nM
COc1cc(C#N)cc(-c2ccc(Cc3ccccc3)cc2)c1,IC50,"A549 [1]; Homo sapiens, A549, 72 h",> 10000 nM
COc1cc2c(c(OC)c1OC)-c1ccc(OC)c(=O)cc1[C@@H](NC(C)=O)CC2 [COLCHICINE],CLH,[11],0.384 mL/min/g
same,Ratio IC50,[4],73.5
same,IC50,KB,18.2 nM
same,IC50,K562/Adr,6550 nM
same,IC50,K562,102 nM
same,Ratio IC50,[7],64.4
same,IC50,[8],294 nM
same,IC50,KB-V1,1340 nM
same,Ratio IC50,[10],16.1
COc1cc(C#N)cc(-c2ccc(C(=O)c3ccccc3N)cc2)c1,IC50,"A549 [1]; Homo sapiens, A549, 72 h",1390 nM
COc1ccc(C(=O)c2ccc(-c3cc(C#N)cc(OC)c3)cc2)cc1,IC50,"A549 [1]; Homo sapiens, A549, 72 h",> 10000 nM
COc1cc(C#N)cc(-c2ccc(C(=O)c3cccs3)cc2)c1,IC50,"A549 [1]; Homo sapiens, A549, 72 h",1190 nM
COc1cc(C#N)cc(-c2ccc(C(=O)c3ccccc3Cl)cc2)c1,IC50,"A549 [1]; Homo sapiens, A549, 72 h",306 nM
COc1cc(OC)c(OC)c(-c2ccc(C(=O)c3ccccc3)cc2)c1,IC50,"A549 [1]; Homo sapiens, A549, 72 h",> 10000 nM
COc1cc(C#N)cc(-c2ccc(C(O)c3ccccc3)cc2)c1 (stereo unspecified),IC50,"A549 [1]; Homo sapiens, A549, 72 h",770 nM
COc1cc(C#N)cc(-c2ccc(C(=O)c3cccc(O)c3)cc2)c1,IC50,"A549 [1]; Homo sapiens, A549, 72 h",78 nM
COc1cc(C#N)cc(-c2ccc(C(=O)c3ccccc3)c(NC(C)=O)c2)c1,IC50,"A549 [1]; Homo sapiens, A549, 72 h",1030 nM
COc1cc(OC)cc(C(=O)c2ccc(-c3cc(C#N)cc(OC)c3)cc2)c1,IC50,"A549 [1]; Homo sapiens, A549, 72 h",72 nM
COc1cccc(C(=O)c2ccc(-c3cc(OC)cc(OC)c3)cc2N)c1,IC50,"A549 [1]; Homo sapiens, A549, 72 h",17 nM
COc1cc(C#N)cc(-c2ccc(C(=O)c3ccc(Cl)cc3)cc2)c1,IC50,"A549 [1]; Homo sapiens, A549, 72 h",1070 nM
COc1cccc(C(=O)c2ccc(-c3cc(C#N)cc(OC)c3)cc2)c1,IC50,"A549 [1]; Homo sapiens, A549, 72 h",54 nM
COc1cc(C#N)cc(-c2cc(OC)c(C(=O)c3ccccc3)cc2OC)c1,IC50,"A549 [1]; Homo sapiens, A549, 72 h",> 10000 nM
COc1cccc2c1C(=O)c1c(O)c3c(c(O)c1C2=O)C[C@@](O)(C(=O)CO)C[C@@H]3O[C@H]1C[C@H](N)[C@H](O)[C@H](C)O1.Cl [DOXORUBICIN HYDROCHLORIDE],IC50,K562/Adr,31200 nM
same,IC50,K562,108 nM
same,Ratio IC50,[7],287.7
Nc1c(F)cc(Cl)cc1-c1ccc(C(=O)c2ccccc2)cc1,IC50,"A549 [1]; Homo sapiens, A549, 72 h",> 10000 nM
COc1cc(OC)c(-c2ccc(C(=O)c3ccccc3)cc2)c(OC)c1,IC50,"A549 [1]; Homo sapiens, A549, 72 h",> 10000 nM
COc1ccc(-c2ccc(C(=O)c3ccccc3)cc2)cc1,IC50,"A549 [1]; Homo sapiens, A549, 72 h",> 10000 nM
COc1cc(OC)cc(-c2ccc(C(=O)c3ccccc3)cc2)c1,inhibition,Tubulin (Homo sapiens) [2],23.9%
same,IC50,"A549 [1]; Homo sapiens, A549, 72 h",94 nM
same,Ratio IC50,[4],1
same,Activity,A549 [12],Active
same,IC50,KB,52.7 nM
same,inhibition,Tubulin (Homo sapiens) [13],Active
same,inhibition,Tubulin (Homo sapiens) [14],Active
same,Activity,A549 [15],Active
same,IC50,K562/Adr,305 nM
same,IC50,K562,137 nM
same,IC50,[8],42.5 nM
same,IC50,KB-V1,51.7 nM
same,Ratio IC50,[10],0.8
COc1cc(C#N)cc(-c2ccc(C(=O)c3ccnc(OC)c3)cc2)c1,IC50,"A549 [1]; Homo sapiens, A549, 72 h",322 nM
COc1ccccc1-c1ccc(C(=O)c2ccccc2)cc1,IC50,"A549 [1]; Homo sapiens, A549, 72 h",2910 nM
CC(=O)O[C@H]1C(=O)[C@@]2(C)[C@H]([C@H](OC(=O)c3ccccc3)[C@]3(O)C[C@H](OC(=O)[C@H](O)[C@@H](NC(=O)c4ccccc4)c4ccccc4)C(C)=C1C3(C)C)[C@]1(OC(C)=O)CO[C@@H]1C[C@@H]2O [PACLITAXEL],T/C,4T1 [16],49.2%
COc1cc(C#N)cc(-c2ccc(S(=O)(=O)c3ccccc3)cc2)c1,IC50,"A549 [1]; Homo sapiens, A549, 72 h",> 10000 nM
O=C(c1ccccc1)c1ccc(-c2cccc(C(F)(F)F)c2)cc1,IC50,"A549 [1]; Homo sapiens, A549, 72 h",6540 nM
